Source: patent publication US8106055B2, “Substituted amide compounds” (Gruenenthal GmbH, priority 2007, dated 2012)
Where two headings read alike, the source gives them in different places.

How the values were obtained:
human μ opiate receptor = biological target: T1, human μ opiate receptor (Homo sapiens, UniProt P35372); assay: Affinity for the human μ opiate receptor ([3H]-naloxone displacement, CHO-K1 receptor membrane preparation, SPA); type: binding
T1 construct: purchased PerkinElmer Life Sciences, Zaventem, Belgium RB-HOM; host or cells: CHO-K1 cells (membrane preparation)
Method in brief: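 At 1 μmol/l, compounds were scored for % displacement of 1 nmol/l [3H]-naloxone from CHO-K1-expressed human μ opiate receptor in a homogeneous SPA format (90 min, room temperature).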

[1] = biological target: T2, serotonin (5-HT) reuptake (Rattus norvegicus, UniProt P31652); assay: Inhibition of serotonin (5HT) reuptake in synaptosomes from rat brain; type: biochemical
T2 construct: synaptosomes are freshly isolated from areas of the rat brain; from tissue; host or cells: rat brain synaptosomes (P2 fraction)
Procedure: Binding data of the compounds on the μ opioid receptor and data on the inhibition of reuptake of serotonin (5-HT) are given in Table 1. The data for the μ receptor were measured at a test concentration of 1 μM, and those for the serotonin reuptake at 10 μM. The values are stated in % inhibition.
Inhibition of Serotonin (5HT) Reuptake
In order to be able to carry out these in vitro studies, synaptosomes are freshly isolated from areas of the rat brain. In each case a so-called “P2” fraction prepared in accordance with the instructions of Gray and Whittaker (E. G. Gray and V. P. Whittaker (1962) J. Anat. 76, 79-88) is prepared. For the NA uptake, these vesicular particles are isolated from the hypothalamus of male rat brains.
A detailed description of the method can be found in the literature (M. Ch. Frink, H.-H. Hennies, W. Englberger, M. Haurand and B. Wilffert (1996) Arzneim.-Forsch./Drug Res. 46 (III), 11, 1029-1036).

[2] = biological target: T3, human bradykinin 1 receptor (B1R) (Homo sapiens, UniProt P46663); assay: Functional investigation on the human bradykinin 1 receptor (B1R), Ca2+ FLIPR assay in CHO K1 hB1R cells; type: cell-based; conditions: test substance 10 μM, Ca2+ FLIPR, CHO K1 hB1R cells; for inhibition at 10 µM: CHO-K1, B1R antagonism human, read-out: B1R Ant. h [10 μM] % Inhibition; for B1R Ant. h [10 μM] % Inhibition: B1R antagonism human
T3 construct: expressed in transfected cells; host or cells: CHO K1 cells
T3 sequence (P46663 1-353): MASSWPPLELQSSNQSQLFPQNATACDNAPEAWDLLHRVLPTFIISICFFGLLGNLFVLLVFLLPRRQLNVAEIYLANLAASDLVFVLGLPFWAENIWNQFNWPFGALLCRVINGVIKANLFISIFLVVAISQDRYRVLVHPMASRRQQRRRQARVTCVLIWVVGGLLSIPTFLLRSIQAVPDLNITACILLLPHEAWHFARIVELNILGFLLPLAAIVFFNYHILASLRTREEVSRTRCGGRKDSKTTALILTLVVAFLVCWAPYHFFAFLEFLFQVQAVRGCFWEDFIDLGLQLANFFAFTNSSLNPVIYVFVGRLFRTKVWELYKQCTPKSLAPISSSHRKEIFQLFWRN
Method in brief: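 Peak Ca2+-dependent fluorescence in B1R-transfected CHO K1 cells measures antagonism of an EC80 agonist challenge given 10-20 min after compound. Agonist is Lys-Des-Arg9-bradykinin for human, Des-Arg9-bradykinin for rat receptor.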

[3] = test concentration of 1 μM, read-out: μ (binding on the μ opioid receptor, % inhibition)
[4] = test concentration of 10 μM, read-out: 5-HT (inhibition of reuptake of serotonin, % inhibition)
[5] = 1.5 h, Table 2, test concentration 1 μM, read-out: μ receptor
[6] = Table 2, test concentration 10 μM, read-out: 5-HT reuptake
[7] = test concentration of 1 μM, 1 µM
[8] = test concentration of 10 μM, 10 µM

T2 sequence (P31652 whole entry): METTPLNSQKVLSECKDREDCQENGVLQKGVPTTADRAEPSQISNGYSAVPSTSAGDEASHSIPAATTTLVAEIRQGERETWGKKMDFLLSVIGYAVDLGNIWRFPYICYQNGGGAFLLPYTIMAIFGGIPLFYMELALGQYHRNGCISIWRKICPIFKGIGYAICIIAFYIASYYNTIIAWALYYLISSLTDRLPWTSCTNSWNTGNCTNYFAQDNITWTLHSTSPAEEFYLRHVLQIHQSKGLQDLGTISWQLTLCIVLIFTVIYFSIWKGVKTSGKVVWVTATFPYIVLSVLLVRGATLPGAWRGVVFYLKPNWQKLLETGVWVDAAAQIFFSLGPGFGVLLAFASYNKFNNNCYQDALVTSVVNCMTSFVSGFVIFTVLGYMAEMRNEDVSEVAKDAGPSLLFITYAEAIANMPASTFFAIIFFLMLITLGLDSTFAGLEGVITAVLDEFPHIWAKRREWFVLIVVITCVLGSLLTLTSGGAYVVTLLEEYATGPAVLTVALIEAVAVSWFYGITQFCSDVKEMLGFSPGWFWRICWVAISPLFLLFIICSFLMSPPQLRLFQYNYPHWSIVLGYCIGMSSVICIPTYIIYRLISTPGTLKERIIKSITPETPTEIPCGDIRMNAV
T1 sequence (P35372 whole entry): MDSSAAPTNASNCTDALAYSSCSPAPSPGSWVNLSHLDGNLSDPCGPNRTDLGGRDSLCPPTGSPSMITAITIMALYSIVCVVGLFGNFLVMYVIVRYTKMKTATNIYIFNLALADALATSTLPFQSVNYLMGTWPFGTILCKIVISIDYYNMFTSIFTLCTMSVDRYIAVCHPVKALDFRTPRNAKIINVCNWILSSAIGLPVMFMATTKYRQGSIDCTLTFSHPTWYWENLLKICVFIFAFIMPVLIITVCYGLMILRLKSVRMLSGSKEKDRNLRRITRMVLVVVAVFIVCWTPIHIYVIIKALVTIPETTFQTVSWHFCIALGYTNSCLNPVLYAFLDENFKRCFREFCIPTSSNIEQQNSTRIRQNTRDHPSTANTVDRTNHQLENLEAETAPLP

Row | Compound | μ (binding on the μ opioid receptor, % inhibition) (human μ opiate receptor; test concentration of 1 μM) [%] | 5-HT (inhibition of reuptake of serotonin, % inhibition) ([1]; test concentration of 10 μM) [%] | further results
1 | COc1cc(C)c(S(=O)(=O)N(C)CCOCC(=O)NCC2CCC(C(c3cccc(F)c3)N(C)C)CC2)c(C)c1C (stereo not shown) [Example 160, N-((4-((dimethylamino)(3-fluorophenyl)methyl)cyclohexyl)methyl)-2-(2-(4-methoxy-N,2,3,6-tetramethylphenylsulfonamido)ethoxy)acetamide] | – | – | inhibition at 1 µM (human μ opiate receptor; [3]): 88%; inhibition at 10 µM [1, 4]: 80%; inhibition at 10 µM [2]: 98%
2 | CN(C)C(c1ccccc1)C1CCC(NC(=O)COC2CCN(S(=O)(=O)c3ccccc3)CC2)CC1 (stereo not shown) [Example 257] | 74 | 86 | B1R Ant. h [10 μM] % Inhibition [2]: 26%
3 | COc1cc(C)c(S(=O)(=O)N(C)CCOCC(=O)NC2CCC(C(c3cccc(F)c3)N(C)C)CC2)c(C)c1C (stereo not shown) [Example 159, N-(4-((dimethylamino)(3-fluorophenyl)methyl)cyclohexyl)-2-(2-(4-methoxy-N,2,3,6-tetramethylphenylsulfonamido)ethoxy)acetamide] | – | – | inhibition at 1 µM (human μ opiate receptor; [3]): 85%; inhibition at 10 µM [1, 4]: 72%; inhibition at 10 µM [2]: 91%
4 | CN(C)C(c1ccccc1)C1CCC(NC(=O)COCCN(C2CC2)S(=O)(=O)c2c(Cl)cc(Cl)cc2Cl)CC1 (stereo not shown) [Example 600, 2-{2-[cyclopropyl-(2,4,6-trichlorobenzenesulfonyl)-amino]-ethoxy}-N-[4-(dimethylaminophenylmethyl)-cyclohexyl]-acetamide] | – | – | inhibition at 1 µM (human μ opiate receptor; [5]): 95%; inhibition at 10 µM [1, 6]: 60%; inhibition at 10 µM [2]: 101%
5 | COc1ccc(S(=O)(=O)N2CCCCC2CCOCC(=O)NC2CCC(C(c3ccccc3)N(C)C)CC2)cc1 (stereo not shown) [Example 3, N-(4-((dimethylamino)(phenyl)methyl)cyclohexyl)-2-(2-(1-(4-methoxyphenylsulfonyl)piperidin-2-yl)ethoxy)acetamide] | – | – | inhibition at 1 µM (human μ opiate receptor; [3]): 99%; inhibition at 10 µM [1, 4]: 92%; inhibition at 10 µM [2]: 69%
6 | CN(CCOCC(=O)NC1CCC(C(c2ccccc2)N2CCCCC2)CC1)S(=O)(=O)c1c(Cl)cc(Cl)cc1Cl (stereo not shown) [Example 601, 2-{2-[methyl-(2,4,6-trichlorobenzenesulfonyl)-amino]-ethoxy}-N-[4-(phenylpiperidin-1-yl-methyl)-cyclohexyl]-acetamide] | – | – | inhibition at 1 µM (human μ opiate receptor; [5]): 45%; inhibition at 10 µM [1, 6]: 75%; inhibition at 10 µM [2]: 78%
7 | CN(C)C(c1ccccc1)C1CCC(NC(=O)COc2ccccc2N(C)S(=O)(=O)c2ccc(Cl)c(Cl)c2)CC1 (stereo not shown) [Example 166, 2-(2-(3,4-dichloro-N-methylphenylsulfonamido)phenoxy)-N-(4-((dimethylamino)(phenyl)methyl)cyclohexyl)acetamide] | – | – | inhibition at 1 µM (human μ opiate receptor; [3]): 87%; inhibition at 10 µM [1, 4]: 91%; inhibition at 10 µM [2]: 74%
8 | CN(C)C(c1ccccc1)C1CCC(NC(=O)COCCN(C)S(=O)(=O)c2c(Cl)cc(Cl)cc2Cl)CC1 (stereo not shown) [Example 598, N-[4-(dimethylaminophenylmethyl)-cyclohexyl]-2-{2-[methyl-(2,4,6-trichlorobenzenesulfonyl)-amino]-ethoxy}-acetamide] | – | – | inhibition at 1 µM (human μ opiate receptor; [5]): 91%; inhibition at 10 µM [1, 6]: 75%; B1R Ant. h [10 μM] % Inhibition [2]: 86%
9 | CN(C)C(c1ccccc1)C1CCC(NC(=O)COCC2CCCCN2S(=O)(=O)c2ccc(Cl)cc2)CC1 (stereo not shown) [Example 95, 2-((1-(4-chlorophenylsulfonyl)piperidin-2-yl)methoxy)-N-(4-((dimethylamino)(phenyl)methyl)cyclohexyl)acetamide] | – | – | inhibition at 1 µM (human μ opiate receptor; [3]): 91%; inhibition at 10 µM [1, 4]: 84%; inhibition at 10 µM [2]: 22%
10 | CN(C)C(c1ccc(Cl)cc1)C1CCC(CCNC(=O)COCc2ccccc2)CC1 (stereo not shown) [Example 482] | 47 | 55 | –
11 | CC(Oc1ccccc1)C(=O)NCCC1CCC(C(c2ccccc2)N(C)C)CC1 (stereo not shown) [Example 270] | 77 | 73 | –
12 | CN(C)C(CCc1ccccc1)C1CCC(NC(=O)COc2ccc(Cl)cc2)CC1 (stereo not shown) [Example 564] | 24 | 47 | –
13 | CC(Oc1ccccc1)C(=O)NC1CCC(C(CCc2ccccc2)N(C)C)CC1 (stereo not shown) [Example 545] | – | – | μ (binding on the μ opioid receptor, % inhibition) (human μ opiate receptor; [7]): 30%; 5-HT (inhibition of reuptake of serotonin, % inhibition) [1, 8]: 52%
14 | CC(Oc1ccccc1)C(=O)NCC1CCC(C(CCc2ccccc2)N(C)C)CC1 (stereo not shown) [Example 495] | 44 | 48 | –
15 | CN(C)C(c1ccccc1)C1CCC(NC(=O)COCc2ccccc2)CC1 (stereo not shown) [Example 245] | 80 | 59 | –
16 | CC(Oc1ccccc1)C(=O)NCCC1CCC(C(c2cccs2)N(C)C)CC1 (stereo not shown) [Example 315] | 72 | 61 | –
17 | CC(Oc1ccccc1)C(=O)NCC1CCC(C(c2ccc(F)cc2)N(C)C)CC1 (stereo not shown) [Example 236] | 81 | 63 | –
18 | CC(Oc1ccccc1)C(=O)NC1CCC(C(CCc2ccccc2)N(C)C)CC1 (stereo not shown) [Example 577] | – | – | μ (binding on the μ opioid receptor, % inhibition) (human μ opiate receptor; [7]): 14%; 5-HT (inhibition of reuptake of serotonin, % inhibition) [1, 8]: 16%
19 | CC(Oc1ccccc1)C(=O)NCC1CCC(C(c2ccc(Cl)cc2)N(C)C)CC1 (single isomer, unassigned) [Example 237] | 81 | – | 5-HT (inhibition of reuptake of serotonin, % inhibition) [1, 8]: 52%
20 | CN(C)C(c1ccc(F)cc1)C1CCC(NC(=O)COCc2ccccc2)CC1 (stereo not shown) [Example 529] | 37 | 59 | –
21 | CC(Oc1ccccc1)C(=O)NCCC1CCC(C(c2ccc(F)cc2)N(C)C)CC1 (stereo not shown) [Example 455] | 51 | 74 | –
22 | CN(C)C(CCc1ccccc1)C1CCC(NC(=O)COCc2ccccc2)CC1 (stereo not shown) [Example 582] | 9 | 75 | –
23 | CN(C)C(c1ccccc1)C1CCC(NC(=O)COc2ccc(Cl)cc2)CC1 (stereo not shown) [Example 316] | 72 | 59 | –
24 | COC(=O)C(=O)NCCC1CCC(C(c2ccccc2)N(C)C)CC1 (stereo not shown) [Example 579] | 11 | 59 | –
25 | CCOC(=O)C(=O)NCC1CCC(C(CCc2ccccc2)N(C)C)CC1 (stereo not shown) [Example 421] | 57 | 26 | –
26 | CN(C)C(c1cccc(F)c1)C1CCC(NC(=O)COc2ccc(Cl)cc2)CC1 (stereo not shown) [Example 505] | 42 | 59 | –
